Measured values taken from patent US20130345177A1, “Oleyl Phosphocholine for the Treatment of Mycosis” (DAFRA PHARMA RESEARCH & DEVELOPMENT BVBA, priority 2011, published 2013).
In brackets after ≈: the same amount, converted by molar mass.

Experiments:
[1] = tested on: Candida albicans IHEM 19114 (clinical blood isolate resistant for voriconazole and itraconazole); assay: CLSI broth dilution antifungal susceptibility (microplates); format: cell-based; conditions: Candida albicans IHEM 19114 (resistant), 48 hours of incubation; for MIC100 (48 h): inhibits growth of 100%; for MIC50: inhibits growth of 50%
Protocol: The following ten strains were tested for assaying the anti-fungal activity of oleyl phosphocholine.
The above strains were contacted with oleyl phosphocholine on microplates and the anti-fungal activity of oleyl phosphocholine was determined. In comparison, the same test was performed using amphotericin B (AMB), voriconazole (VRZ) and itraconazole (ITR).
The test protocol used was in conformity with the standard CLSI method:
Clinical and Laboratory Standards Institute/National Committee for Clinical Laboratory Standards (2002) Reference method for broth dilution antifungal susceptibility testing of yeasts. Approved Standard document M27-A2. Clinical and Laboratory Standards Institute/National Committee for Clinical Laboratory Standards Institute, Wayne Pa. Clinical and Laboratory Standards Institute/National Committee for Clinical Laboratory Standards. (2002) Reference method for broth dilution antifungal susceptibility testing of filamentous fungi. Approved Standard document M38-A. Clinical and Laboratory Standards Institute/National Committee for Clinical Laboratory Standards Institute, Wayne
The results, after visual and spectrophometric reading after 48 hours of incubation, are presented as MIC50 and MIC 100, i.e. the minimum inhibitory concentration required inhibiting the growth of 50% or 100% of the microorganisms, respectively.

[2] = tested on: Candida krusei IHEM 9560 (ATCC 6258); assay: as above; format: cell-based; conditions: for MIC100 (48 h): 48 hours of incubation, inhibits growth of 100%; for MIC50: Pichia kudriavzevii, ATCC6258, 48 hours of incubation, inhibits growth of 50%
Protocol: (§1) The above strains were contacted with oleyl phosphocholine on microplates and the anti-fungal activity of oleyl phosphocholine was determined. In comparison, the same test was performed using amphotericin B (AMB), voriconazole (VRZ) and itraconazole (ITR). The test protocol used was in conformity with the standard CLSI method: Clinical and Laboratory Standards Institute/National Committee for Clinical Laboratory Standards (2002) Reference method for broth dilution antifungal susceptibility testing of yeasts. […] Clinical and Laboratory Standards Institute/National Committee for Clinical Laboratory Standards Institute, Wayne Pa. Clinical and Laboratory Standards Institute/National Committee for Clinical Laboratory Standards. (2002) Reference method for broth dilution antifungal susceptibility testing of filamentous fungi. Approved Standard document M38-A. Clinical and Laboratory Standards Institute/National Committee for Clinical Laboratory Standards Institute, Wayne […]

[3] = tested on: Aspergillus fumigatus IHEM 18963 (NCPF 7367); assay: as above; format: cell-based; conditions: for MIC100 (48 h): 48 hours of incubation; for MIC: NCPF7367, 48 hours of incubation, read-out: MIC100 (48 h)
Protocol: as §1

[4] = tested on: Candida parapsilosis IHEM 3270 (ATCC 22019); assay: as above; format: cell-based; conditions: for MIC100 (48 h): 48 hours of incubation, inhibits growth of 100%; for MIC50: Lodderomyces parapsilosis, ATCC22019, 48 hours of incubation, inhibits growth of 50%
Protocol: as §1

[5] = tested on: Aspergillus niger IHEM 5788 (ATCC 10864); assay: as above; format: cell-based; conditions: for MIC100 (48 h): 48 hours of incubation; for MIC: ATCC10864, 48 hours of incubation, read-out: MIC100 (48 h)
Protocol: as §1

[6] = tested on: Aspergillus terreus IHEM 13669 (clinical isolate); assay: as above; format: cell-based; conditions: 48 hours of incubation; for MIC: read-out: MIC100 (48 h)
Protocol: as §1

[7] = tested on: Fusarium solani IHEM 18489 (clinical isolate); assay: as above; format: cell-based; conditions: 48 hours of incubation; for MIC: read-out: MIC100 (48 h)
Protocol: as §1

[8] = tested on: Candida glabrata IHEM 19371 (clinical blood isolate); assay: as above; format: cell-based; conditions: 48 hours of incubation; for MIC100 (48 h): inhibits growth of 100%; for MIC50: Nakaseomyces glabratus, inhibits growth of 50%
Protocol: as §1

[9] = tested on: Candida albicans IHEM 3731 (ATCC 10231); assay: as above; format: cell-based; conditions: for MIC100 (48 h): 48 hours of incubation, inhibits growth of 100%; for MIC50: ATCC10231, 48 hours of incubation, inhibits growth of 50%
Protocol: as §1

[10] = tested on: Scedosporium prolificans IHEM 22387 (clinical blood isolate); assay: as above; format: cell-based; conditions: 48 hours of incubation; for MIC: Lomentospora prolificans, read-out: MIC100 (48 h)
Protocol: as §1

Candida yeast = conditions: patients with culture-proven candidemia; cited from earlier work
[11] = people taking itraconazole; cited from earlier work
Aspergillus fumigatus = assay: In vitro efficacy against yeasts and fungi (microplates); format: cell-based
Protocol: (§2) The above strains were contacted oleyl phosphocholine on microplates and the anti-fungal activity of oleyl phosphocholine was determined. Anti-fungal activity was expressed as IC50, i.e. the concentration oleyl phosphocholine needed to kill 50% of the pathogens.

[12] = tested on: Candida albicans B59630 (R); assay: as above; format: cell-based
Protocol: as §2

Cryptococcus neoformans = assay: as above; format: cell-based
Protocol: as §2

[13] = tested on: Trichophyton mentagrophytes B70554; assay: as above; format: cell-based
Protocol: as §2

Candida albicans = assay: as above; format: cell-based; conditions: concentration needed to kill 50% of the pathogens
Protocol: as §2

[14] = tested on: Cryptococcus neoformans B66663; assay: as above; format: cell-based
Protocol: as §2

[15] = tested on: Aspergillus fumigatus B42928; assay: as above; format: cell-based
Protocol: as §2

[16] = tested on: Candida parapsilosis B66126; assay: as above; format: cell-based
Protocol: as §2

[17] = tested on: Fusarium solani IHEM22128; assay: as above; format: cell-based
Protocol: as §2

[18] = tested on: Sporothrix schenkii B62482; assay: as above; format: cell-based
Protocol: as §2

[19] = tested on: Fusarium oxysporum IHEM3014; assay: as above; format: cell-based
Protocol: as §2

[20] = tested on: Aspergillus fumigatus B19119; assay: as above; format: cell-based
Protocol: as §2

Microsporum canis = assay: as above; format: cell-based
Protocol: as §2

[21] = tested on: Trichophyton rubrum B68183; assay: as above; format: cell-based
Protocol: as §2

Trichophyton rubrum = assay: as above; format: cell-based
Protocol: as §2

[22] = tested on: Candida albicans B63195 (S); assay: as above; format: cell-based
Protocol: as §2

Sporothrix schenkii = assay: as above; format: cell-based
Protocol: as §2

MIC50 [1] [µg/mL]	MIC50 [2] [µg/mL]	MIC [3] [µg/mL]	MIC50 [4] [µg/mL]	MIC [5] [µg/mL]	MIC [6] [µg/mL]	MIC [7] [µg/mL]	MIC50 [8] [µg/mL]	MIC50 [9] [µg/mL]	MIC [10] [µg/mL]	Compound	MIC100 (48 h) [1] [µg/mL]	MIC100 (48 h) [2] [µg/mL]	MIC100 (48 h) [3] [µg/mL]	MIC100 (48 h) [4] [µg/mL]	MIC100 (48 h) [5] [µg/mL]	MIC100 (48 h) [6] [µg/mL]	MIC100 (48 h) [7] [µg/mL]	MIC100 (48 h) [8] [µg/mL]	MIC100 (48 h) [9] [µg/mL]	MIC100 (48 h) [10] [µg/mL]	further results
–	–	–	–	–	–	–	–	–	–	C[C@@H]1[C@H](O)[C@@H](C)/C=C/C=C/C=C/C=C/C=C/C=C/C=C/[C@H](O[C@@H]2O[C@H](C)[C@@H](O)[C@H](N)[C@@H]2O)C[C@@H]2O[C@](O)(C[C@@H](O)C[C@@H](O)[C@H](O)CC[C@@H](O)C[C@@H](O)CC(=O)O[C@H]1C)C[C@H](O)[C@H]2C(=O)O [AMB, amphotericin B]	0.5 (≈ 0.541 µM)	1 (≈ 1.08 µM)	2 (≈ 2.16 µM)	1 (≈ 1.08 µM)	1 (≈ 1.08 µM)	>8	2 (≈ 2.16 µM)	0.5 (≈ 0.541 µM)	0.5 (≈ 0.541 µM)	>8	time to clear Candida yeast from the bloodstream (median) (Candida yeast): 2 days
> 16	0.25 (≈ 0.354 µM)	0.5 (≈ 0.709 µM)	0.064 (≈ 0.0907 µM)	0.5 (≈ 0.709 µM)	0.25 (≈ 0.354 µM)	> 16	0.5 (≈ 0.709 µM)	0.032 (≈ 0.0453 µM)	> 16	CCC(C)n1ncn(-c2ccc(N3CCN(c4ccc(OCC5COC(Cn6cncn6)(c6ccc(Cl)cc6Cl)O5)cc4)CC3)cc2)c1=O (centres unmarked) [ITR, itraconazole]	–	–	–	–	–	–	–	–	–	–	people with elevated alanine aminotransferase levels [11]: 4%
–	–	–	–	–	–	–	–	–	–	CCCCCCCC/C=C\CCCCCCCCOP(=O)([O-])OCC[N+](C)(C)C [OlPC, oleyl phosphocholine]	2.5 (≈ 5.77 µM)	5 (≈ 11.5 µM)	5 (≈ 11.5 µM)	5 (≈ 11.5 µM)	10 (≈ 23.1 µM)	10 (≈ 23.1 µM)	5 (≈ 11.5 µM)	5 (≈ 11.5 µM)	2.5 (≈ 5.77 µM)	5 (≈ 11.5 µM)	IC50 (Aspergillus fumigatus): 18.8 µM; IC50 [12]: 8 µM; IC50 (Cryptococcus neoformans): 4.5 µM; IC50 [13]: 2 µM; IC50 (Candida albicans): 7.89 µM; IC50 [14]: 0.5 µM; IC50 [15]: 8 µM; IC50 [16]: 8 µM; IC50 [17]: 2.31 µM; IC50 [18]: 1.97 µM; IC50 [19]: 2.55 µM; IC50 [20]: 1.87 µM; IC50 (Microsporum canis): 1.66 µM; IC50 [21]: 2 µM; IC50 (Trichophyton rubrum): 5.87 µM; IC50 [22]: 7.77 µM; IC50 (Sporothrix schenkii): 8.16 µM
> 16	0.5 (≈ 1.43 µM)	1 (≈ 2.86 µM)	0.125 (≈ 0.358 µM)	1 (≈ 2.86 µM)	0.5 (≈ 1.43 µM)	16 (≈ 45.8 µM)	0.25 (≈ 0.716 µM)	0.064 (≈ 0.183 µM)	16 (≈ 45.8 µM)	C[C@@H](c1ncncc1F)[C@](O)(Cn1cncn1)c1ccc(F)cc1F [VRZ, voriconazole]	–	–	–	–	–	–	–	–	–	–	–
